US20090175845A1, “METHODS FOR IDENTIFYING COMPOUNDS THAT MODULATE PHB DOMAIN PROTEIN ACTIVITY AND COMPOSITIONS THEREOF” (THE TRUSTEES OF COLUMBIA UNIVERSITY IN THE CITY OF NEW YORK, priority 2005, published 2009)

Legend:
TRPC6 = molecular target: T1, TRPC6 (Homo sapiens, UniProt Q9Y210); experiment: Oocyte electrophysiology, two-electrode voltage clamp; assay type: cell-based; settings: TRPC6-expressing Xenopus laevis oocytes, Ca2+ free bath solution, 10 μM
T1 construct: expressed in transfected cells; host or cells: Xenopus laevis oocytes (cRNA injection)
T1 sequence (Q9Y210 1-931): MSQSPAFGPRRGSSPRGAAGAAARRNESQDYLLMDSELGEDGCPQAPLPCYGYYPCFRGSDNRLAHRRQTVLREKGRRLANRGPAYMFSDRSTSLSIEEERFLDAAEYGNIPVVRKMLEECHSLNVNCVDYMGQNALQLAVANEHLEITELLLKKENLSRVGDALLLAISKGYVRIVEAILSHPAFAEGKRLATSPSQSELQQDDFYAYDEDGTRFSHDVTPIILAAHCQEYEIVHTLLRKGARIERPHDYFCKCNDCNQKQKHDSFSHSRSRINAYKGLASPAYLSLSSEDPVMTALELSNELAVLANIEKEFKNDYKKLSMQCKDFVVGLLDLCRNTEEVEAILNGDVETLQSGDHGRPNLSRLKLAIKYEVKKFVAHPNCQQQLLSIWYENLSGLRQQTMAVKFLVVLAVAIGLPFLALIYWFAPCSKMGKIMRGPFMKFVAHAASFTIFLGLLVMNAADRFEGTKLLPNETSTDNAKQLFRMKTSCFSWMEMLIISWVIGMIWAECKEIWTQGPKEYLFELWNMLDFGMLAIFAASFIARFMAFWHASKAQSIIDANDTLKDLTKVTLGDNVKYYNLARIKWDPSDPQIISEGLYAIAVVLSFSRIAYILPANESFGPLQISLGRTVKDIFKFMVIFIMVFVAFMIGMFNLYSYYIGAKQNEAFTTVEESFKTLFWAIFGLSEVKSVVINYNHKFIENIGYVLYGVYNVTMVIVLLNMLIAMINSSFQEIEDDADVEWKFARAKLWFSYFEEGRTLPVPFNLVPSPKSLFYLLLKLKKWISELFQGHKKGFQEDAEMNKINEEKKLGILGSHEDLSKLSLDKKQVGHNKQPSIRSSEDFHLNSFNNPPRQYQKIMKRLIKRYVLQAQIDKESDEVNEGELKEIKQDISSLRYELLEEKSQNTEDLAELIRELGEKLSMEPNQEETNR
Description: Oocyte Electrophysiology. Xenopus laevis oocytes were isolated from adult frogs (Kähler, Hamburg, Germany), dispersed and defolliculated by a 45 minute treatment with collagenase (type A, Boehringer, Germany), and were rinsed and kept at 18° C. in ND96-buffer (in mmol/l): NaCl 96, KCI 2, CaCl2 1.8, MgCl2 1, HEPES 5, Na-pyruvate 2.5, pH 7.55), supplemented with theophylline (0.5 mmol/l) and gentamycin (5 mg/l).
To prepare cRNAs for TRPC6, Podocin and Podocin-DPHB (Podocin-ΔPHB), cDNAs encoding TRPC6, Podocin and Podocin-DPHB were transcribed in vitro using the T7 promoter and polymerase (Promega, Madison, Wis.). After isolation from adult Xenopus laevis female frogs (Kähler, Hamburg, Germany), oocytes were dispersed and defolliculated by a 45 minute treatment with collagenase (type A, Boebringer, Germany). Subsequently, the oocytes were rinsed and kept at 18° C. in ND96-buffer (in mmol/l): NaCl 96, KCI 2, CaCI2 1.8, MgCI2 1, HEPES 5, Na-pyruvate 2.5, pH. […] Membrane currents were measured by voltage clamping of the oocytes (Warner oocyte clamp amplifier OC725C) in intervals from −60 to +40 mV, each 1 s. Conductances were calculated according to Ohm's law. Na^+ conductances were determined by replacing Na^+ by n-methyl-D-glucamine (GNMDG) in a Ca^2+ free bath solution, before and after stimulation with 10 μM dioctanoyl glycerol (Sigma, Germany). […]

[1] = tested on: mec-2 null worms expressing the mec-2(C140/174A) gene; experiment: C. elegans gentle touch sensitivity on plates with defined sterols; assay type: in vivo; settings: sterol substituted for cholesterol in the growth medium, FIG. 8C
Description: C. elegans experiments. C. elegans strains were cultured at 20° C., assayed for touch sensitivity, and prepared for immunofluorescence as described previously [Zhang et al. (2004) Curr. Biol. 14:1888-96; Goodman et al. (2002) Nature 415:1039-42]. Briefly, C. elegans strains were cultured at 20° C. as described in the art. Strains were grown for at least three consecutive generations without starvation before carrying out the experiments described herein. Gentle touch and harsh touch sensitivity were assayed in blind tests by stimulating with an eyebrow hair or prodding with a platinum wire, respectively, as described in the art. To quantify the response, the number of responses in about 30 animals to 10 touches delivered alternately near the head and tail was recorded. Whole-mount immunofluorescence microscopy was carried out using methods known in the art.
Media for growth on limiting or no cholesterol or on other sterols were prepared from chloroform-extracted reagents as described by Matyash et al. [(2004) PLoS Biol. 2: e280].
First, a version of MEC-2 with reduced cholesterol binding was generating by mutating the predicted palmitoylation sites of the protein. Briefly, HEK293T cells were transfected with wild type MEC-2 or MEC-2(C140/174A) and labeled with [^3H]palmitic acid or [^3H]photoaffinity cholesterol. Equal expression of proteins in the lysates was confirmed on Western blots. […] Because touch sensitivity of wild-type animals was not affected by this limited cholesterol depletion, the effects observed with the palmitoylation mutant cannot be attributed to indirect effects on neuronal growth or development. Test compounds that target palmitoylation sites in PHB domain proteins can be used to modulate activity of such proteins, for example, by reducing their activity.

Compound | inward Na+ current (TRPC6) | rescue of reduced touch sensitivity [1]
CCCCCCCC/C=C\CCCCCCCC(=O)OC[C@H](CO)OC(C)=O [OAG, 1-oleoyl-2-acetyl-sn-glycerol] | further augmented | –
CC(C)CCC[C@@H](C)[C@H]1CC[C@H]2C3=CC[C@H]4C[C@@H](O)CC[C@]4(C)[C@H]3CC[C@]12C [lathosterol] | – | could be rescued
CC(C)[C@@H](C)/C=C/[C@@H](C)[C@H]1CC[C@H]2C3=CC=C4C[C@@H](O)CC[C@]4(C)[C@H]3CC[C@]12C [ergosterol] | – | could be rescued
CC(C)CCC[C@@H](C)[C@H]1CC[C@H]2C3=CC=C4C[C@@H](O)CC[C@]4(C)[C@H]3CC[C@]12C [7-dehydro cholesterol] | – | could be rescued
